According to PMC10269895 (Microbiology Spectrum, 2023):
Several values for one entry are separate records, joined by “and”; a condition that tells them apart may be missing. Identical values can stand only once.

Assays:
[1] = Cellular permeability assay using the CaCo2/TC7 cell line; type: in vitro ADME, human; settings: human, Caco-2; 1 or 20 μM, apical-to-basolateral, 120 min, pH 7.4; read-out: Apparent permeability
Method: (§1) CaCo2/TC7 cells were seeded in a Falcon 24-well multiwell insert system with 1.0-μm-pore high-density polyethylene terephthalate (PET) membrane plates, at a density of 60,000 cells per well in DMEM (high glucose, with Glutamax I, without HEPES, with 20% fetal calf serum [FCS], and with penicillin-streptomycin). The cells were incubated for at least 21 days to ensure complete differentiation, polarization, and formation of a tight barrier layer. Permeability assays were performed in Hanks’ balanced salt solution (HBSS) with sodium taurocholate (186 μM), HEPES (10 mM), and bovine serum albumin (BSA) (0.5% [wt/vol]), adjusted to pH 7.4 with sodium hydroxide (1 N). GE81112A at 1 and 20 μM was assayed for 120 min in the apical-to-basolateral direction with an apical pH of 7.4 and a basolateral pH of 7.4, without a BSA gradient (0.5%) on either side. After the incubation period, apical and basolateral concentrations of GE81112A were determined using liquid chromatography-tandem mass spectrometry (LC-MS/MS).

CaCo2/TC7 cells = assay: as above; type: in vitro ADME, human; settings: predicted from CaCo2/TC7 permeability
Method: as §1

[2] = In vivo tolerability study in uninfected mice; parameters: species or system Swiss mice; settings: 30 mg/kg single i.v. bolus in NaCl (0.9%)
Method: We first performed a tolerability study in uninfected mice by injecting GE81112A at up to 30 mg/kg, formulated in NaCl (0.9%), via intravenous (i.v.) bolus administration.
All animal studies were performed in accordance with relevant guidelines and regulations. A 30 mg/kg dose of GE81112A, formulated in 0.9% NaCl, was administered to noninfected Swiss mice (n = 3), using a single i.v. bolus. Adverse events and animal weights were monitored for 24 h after administration.

[3] = PK in mice after a single i.v. administration; type: in vivo, male Swiss mice; settings: 10 mg/kg i.v.
Method: In order to determine the PK parameters of GE81112A, a single i.v. dose of 10 mg/kg in solution was administered to male Swiss mice, and plasma, urine, and tissue concentrations were monitored over 24 h (Fig. 2). After i.v. dosing, the different parameters were investigated in more detail. A high distribution of GE81112A in the kidney points toward its excretion via urine. Therefore, urinary tract infections (UTIs) represent the most probable scope of application (Table 2).
Plasma, urine, and tissue concentrations and PK parameters for GE81112 were assessed after a single i.v. administration of a 10-mg/kg solution to male Swiss mice. Briefly, 5 mL/kg of a 2-mg/mL solution of GE81112A was administered i.v. to fed male Swiss mice (weight of 20 g, obtained from Janvier; n = 24 mice). Samples were collected at 0.08, 0.25, 0.5, 1, 2, 4, 8, and 24 h postadministration for bioanalysis. Bioanalytical samples (plasma, urine, and tissue) were analyzed for the concentration of GE81112 using an exploratory LC-MS/MS method, and PK parameters were estimated using the PK software Phoenix WinNonlin v6.4, using a noncompartmental model and a linear trapezoidal interpolation calculation. The studies were ethically approved by the German governmental authority (protocol number FH/2002; Regierungspräsidium Darmstadt).

NC(=O)OC[C@@H](O)C[C@H](NC(=O)[C@H]1NCCC[C@H]1O)C(=O)N[C@@H](Cc1c[nH]cn1)C(=O)N[C@H](C(=O)O)[C@H](O)c1cnc(Cl)[nH]1 [GE81112A]
Papp at 120 min [1]: 0.028 to 0.316 ×10⁻⁶ cm/s | Absorption in the human intestine (predicted) (CaCo2/TC7 cells): low | Tolerability (signs of toxicity or adverse effects) [2]: did not show any sign of toxicity or adverse effects | Tissue/plasma ratio, kidney [3]: 3.00 | Tissue/plasma ratio, liver [3]: 20 and 20.6 | Tissue/plasma ratio, lung [3]: 0.515 | Proportion of dose recovered in urine ([3]; over 24 h): 30% | clearance ([3]; male, Swiss, mouse, in vivo, iv): 12.2 mL/min/kg | Vd ([3]; male, Swiss, mouse, in vivo, iv, read-out: Volume of distribution): 0.321 L/kg | half-life ([3]; male, Swiss, mouse, plasma, iv): 4.5 h | dose excreted ([3]; male, Swiss, mouse, urine, iv, over 24 h, read-out: Proportion of dose recovered in urine): 30%
